This note sets out measurements from publication PMC6895180 (Nature Communications, 2019).

SMILES strings stand for the structures. Several values for one entry are separate records, joined by “and”; a condition that tells them apart may be missing. Equal entries are not always repeated. Where two headings read alike, the source gives them in different places. Marks after values point to notes of the source that are not given here.

Data set [1] is described as follows: Cytotoxicity on MRC-5 fibroblasts (resazurin). The format is cell-based, human. The conditions noted are these: human. An outline of the steps:
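MRC-5SV2 cells (3 × 10^4 cells mL^−1) in MEM with 5% foetal calf serum exposed to compounds for 3 days at 37 °C, 5% CO2. Viability read by resazurin fluorescence (10 µg mL^−1 final, 4 h; λex 550/λem 590 nm) against untreated and medium controls; EC50 derived.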

Data set [2] deals with ISMR1: isometamidium-resistant T. brucei cell line. The data set is described as follows: microbe, parasite or virus in culture. The format is cell-based, Trypanosoma brucei brucei. The following applies: for RF (ISMR1): resistance factor vs Lister 427WT. An outline of the steps: (§1)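 Trypanosomes (2 × 10^4 cells/well) exposed 48 h at 37 °C/5% CO2 in HMI-9/FBS to 23-step doubling dilutions from 100 µM, then resazurin added for a further 24 h. Fluorescence fitted to a variable-slope sigmoid curve.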

Data set [3] relates to TbAT1-KO: T. brucei cell line lacking the TbAT1(P2) transporter gene. In words: microbe, parasite or virus in culture. The following applies: for RF (TbAT1-KO): resistance factor: ratio of EC50 of resistant and Lister 427WT. The format is cell-based, Trypanosoma brucei brucei. In a few lines: as §1
Data set [4] deals with B48: pentamidine, diminazene and melaminophenyl arsenical resistant T. brucei line. In words: microbe, parasite or virus in culture. It is filed as cell-based, Trypanosoma brucei brucei. The following applies: for RF (B48): resistance factor vs Lister 427WT.
Data set [5] deals with P1 transporter. It is filed as cell-based, Trypanosoma brucei. The procedure:
Non-specific association of radiolabel with the cell pellet was determined using an identical incubation in the presence of saturating (1 mM) unlabelled adenosine.

The test system of data set [6] is T. brucei s427 wildtype cells. In words: Microscopy of trypanosome cell morphology (DAPI). The format is cell-based, Trypanosoma brucei. The conditions noted are these: 2× and 5× EC50; 6 h and especially 12 h. Here is the method: Growth assays of T. brucei
To test the effect of the novel adenosine analogues on the growth of T. brucei BSF, s427 wildtype cells were seeded at 1×10^5 cells mL-1 in 5 mL of HMI-9 medium with 10% FBS and treated with compounds […]
cells were also incubated in drug-free medium under the same conditions. 2 μM of 2’-deoxycoformycin were added to all cultures to avoid any potential effect of serum adenosine deaminase on the activity of test compounds and cordycepin.1
Cells were manually counted in Neubauer chambers at 0, 2, 4, 6, 8, 12, 24, 36 and 48 h after addition of the drugs. At 6 and 12 h, cells were also collected and fixed to have their structure checked by […]
Wash-out experiments with T. brucei
A culture of bloodstream form T. brucei 427WT, at mid-log phase of growth, was harvested and resuspended at a density of 10^5 cells mL-1, in fresh medium containing either no test compound, or […]
The cultures were incubated under standard conditions (37 °C/5% CO2) and cell counts were performed manually using a haemocytometer under phase contrast microscopy, every 24 h. The culture in continuous presence of analogue 9 was split in two at 8 h and 48 h (as indicated with arrows in Supplementary Figure S2). The split cultures were centrifuged and resuspended in the same volume of either fresh medium without test compound or fresh medium with the same concentration of compound 9 as before, reincubated. The detection limit for the manual cell count was 10^4 cells mL-1.
After 6 and 12 h after addition of drugs, approximately 2×10^6 cells were harvested from each group and applied to glass slides pre-treated with poly-L-lysine, left to settle for 5 min and fixed with 4% formaldehyde for 4 min. The formaldehyde was neutralised by addition of 100 mM glycine (20 min).
Cells were washed once with PBS and blocked for 1 h with 1% BSA/0.2% Tween-20 in PBS. Cells were […]
A coverslip was then placed on top of the wells and sealed with nail varnish.
Metabolic stability of nucleoside analogue 9 […]
and B (Corning) were kept at -20°C. The test compound and the reference compounds diclofenac (MW […]

In data set [7] the test system is T. b. brucei Lister 427WT. The data set is described as follows: Drug susceptibility test (resazurin), Lister 427WT. The format is cell-based, Trypanosoma brucei brucei. An outline of the steps: as §1
Data set [8] deals with T. b. rhodesiense STIB-900. In words: microbe, parasite or virus in culture. The format is cell-based, Trypanosoma brucei rhodesiense. The conditions noted are these: for SI (MRC/T.b. rhodesiense): selectivity index.
[9] abbreviates: MRC-5SV2 human embryonic lung fibroblasts, cytotoxicity in human MRC-5 fibroblasts, mean and SEM, read-out: MRC-5 EC50.
Where [10] appears, read: Trypanosoma brucei, mean and SEM, n = 3, read-out: ISMR1 EC50.
Where [11] appears, read: Trypanosoma brucei, source data, read-out: ISMR1 EC50, AVG.
Where [12] appears, read: Trypanosoma brucei, read-out: TbAT1-KO EC50, AVG, source data.
Setting [13] is: Trypanosoma brucei, read-out: TbAT1-KO EC50, mean and SEM, n = 3.
Where [14] appears, read: read-out: TbAT1-KO EC50, single determinations, source data.
The mark [15] stands for this setting: Trypanosoma brucei, mean and SEM, n = 3, read-out: B48 EC50.
The mark [16] stands for this setting: inhibition of [3H]adenosine uptake, mean ± SEM, n = 3, read-out: P1 transporter Ki.
Setting [17] is: source data, read-out: P1 transporter Ki, AVG.
Setting [18] is: Trypanosoma brucei, mean and SEM, n = 3, read-out: Lister 427 EC50.
Where [19] appears, read: Trypanosoma brucei, source data, read-out: s427 EC50, AVG.
Where [20] appears, read: Trypanosoma brucei, RHODESIENSE, Alamar blue cell viability assay, mean and SEM, read-out: T. b. rhodesiense EC50.
Where [21] appears, read: Trypanosoma brucei, RHODESIENSE, source data, read-out: T. brucei rhodesiense EC50, Average.
Setting [22] is: source data, read-out: T. brucei rhodesiense EC50, single measurements.
Setting [23] is: Trypanosoma brucei, source data, read-out: ISMR1 EC50, single determinations.
The mark [24] stands for this setting: source data, read-out: ISMR1 EC50, single determinations.
[25] abbreviates: Trypanosoma brucei, read-out: TbAT1-KO EC50, single determinations, source data.
[26] abbreviates: Trypanosoma brucei, source data, read-out: s427 EC50, single determinations.
The mark [27] stands for this setting: source data, read-out: s427 EC50, single determinations.
[28] abbreviates: Trypanosoma brucei, RHODESIENSE, source data, read-out: T. brucei rhodesiense EC50, single measurements.

With `Nc1ncnc2c1c(Br)cn2[C@@H]1O[C@H](CO)C[C@H]1O` [Compound 10, 3’-deoxy-7-Br-tubercidin], the EC50 at 3 day in data set [1] (setting [9]) is 15000 ± 3000 nM. Moreover, the EC50 in data set [2] (setting [10]) was 1.1 ± 0.2 nM; in data set [2] (setting [11]), 1.11 nM; in data set [3] (setting [12]), 2.12 nM; in data set [3] (setting [13]), 2.1 ± 0.25 nM; in data set [3] (setting [14]) it was 1.94 nM; in data set [4] (setting [15]), 1.3 ± 0.3 nM. Moreover, the half-maximal effective concentration (EC50) in data set [4] (Trypanosoma brucei, source data, read-out: B48 EC50, AVG) turned out to be 1.32 nM; in data set [7] (setting [18]), 1.8 ± 0.3 nM; in data set [7] (setting [19]) it was 1.76 nM; in data set [8] (setting [20]), 0.4 ± 0.09 nM; in data set [8] (setting [21]) it was 0.398 nM; in data set [8] (setting [22]), 0.5 nM. In addition, the “RF (ISMR1)” value in data set [2] was 0.63. Also, the “RF (TbAT1-KO)” value in data set [3] was found to be 1.2. The “RF (B48)” value in data set [4] amounted to 0.75. Further, the “fold improvement of affinity for P1” value in data set [5] (10 versus 9 (bromine at 7-position)) was 10 fold. In addition, the Ki in data set [5] (Cheng–Prusoff from IC50, read-out: P1 transporter Ki, single experiments) is 13400 nM and 8500 nM and 8400 nM; in data set [5] (setting [16]), 9470 ± 1400 nM; in data set [5] (setting [17]), 10100 nM. Moreover, the cell morphology entry in data set [6] is recorded as “clear aberrant morphology”. Moreover, the “SI (MRC/T.b. rhodesiense)” value in data set [8] is on record as 37,500.

Consider `Nc1ncnc2c1ccn2[C@@H]1O[C@H](CO)C[C@H]1O` [Compound 9, 3’-deoxytubercidin], for which the half-maximal effective concentration (EC50) at 3 day in data set [1] (setting [9]) is above 64000 nM; in data set [1] (MRC-5SV2 human embryonic lung fibroblasts, source data, read-out: MRC-5 EC50, single measurements) it was above 64000 nM. Moreover, the EC50 in data set [2] (setting [10]) was 32.4 ± 3.8 nM; in data set [2] (setting [23]), 39.2 nM; in data set [2] (setting [24]), 32 nM and 26 nM; in data set [3] (setting [12]), 374 nM; in data set [3] (setting [13]), 375 ± 12 nM; in data set [3] (setting [25]) it was 370 nM. Also, the EC50 in data set [3] (setting [14]) is 397 nM and 357 nM; in data set [4] (setting [15]) it was 368 ± 13 nM; in data set [4] (Trypanosoma brucei, source data, read-out: B48 EC50, single determinations) it was 378 nM; in data set [4] (source data, read-out: B48 EC50, single determinations), 383 nM and 343 nM; in data set [7] (setting [18]), 33 ± 1 nM; in data set [7] (setting [19]) it was 33.3 nM. Moreover, the EC50 was 32 nM in data set [7] (setting [26]); 35.5 nM and 32.4 nM in data set [7] (setting [27]); 0.52 ± 0.04 nM in data set [8] (setting [20]); 0.521 nM in data set [8] (setting [21]); 0.484 nM in data set [8] (setting [28]); 0.557 nM in data set [8] (setting [22]). Also, the “RF (ISMR1)” value in data set [2] worked out at 0.97. Moreover, the inhibitory constant (Ki) turned out to be 99900 ± 21700 nM in data set [5] (setting [16]) and 108000 nM in data set [5] (setting [17]). Further, the cell morphology entry in data set [6] is on record as “clear aberrant morphology”. The “SI (MRC/T.b. rhodesiense)” value in data set [8] is >123,077.

On to `Nc1ncnc2c1c(Br)cn2[C@@H]1O[C@H](CO)[C@@H](O)[C@H]1O` [Compound 8, 7-bromotubercidin], for which the EC50 at 3 day in data set [1] (MRC-5 EC50, Average) was 12800 nM; in data set [1] (MRC-5 EC50, single measurements), 8180 nM. Further, the EC50 was 1530 ± 157 nM in data set [2] (setting [10]); 1530 nM in data set [2] (setting [11]); 1390 nM in data set [2] (setting [23]); 1100 nM and 2070 nM and 1520 nM in data set [2] (setting [24]); 825 ± 17.3 nM in data set [3] (setting [13]); 820 nM in data set [3] (setting [25]). For the same compound, the concentration giving a half-maximal response (EC50) is 858 nM and 798 nM in data set [3] (setting [14]); 448 ± 196 nM in data set [4] (setting [15]); 320 ± 270 nM in data set [7] (Trypanosoma brucei, read-out: Lister 427 EC50, mean and SEM, n = 3); 315 nM in data set [7] (setting [19]); 364 nM in data set [7] (setting [26]); 309 nM and 273 nM in data set [7] (setting [27]). For the same compound, the EC50 was determined as 120 ± 20 nM in data set [8] (setting [20]), 120 nM in data set [8] (setting [21]), 106 nM in data set [8] (setting [28]) and 136 nM in data set [8] (setting [22]). The “RF (ISMR1)” value in data set [2] is recorded as 4.85**. In addition, the “RF (TbAT1-KO)” value in data set [3] was 2.62***. For the same compound, the “RF (B48)” value in data set [4] was 1.42. Also, the inhibitory constant (Ki) in data set [5] (setting [17]) is 7100 nM. The cell morphology result in data set [6] is reported as “clear aberrant morphology”. The “SI (MRC/T.b. rhodesiense)” value in data set [8] was 107.
